Experimental data taken from PMC6776562, “Inhibition of Rac1-dependent forgetting alleviates memory deficits in animal models of Alzheimer’s disease” (Protein & Cell, 2019).
“Also recorded” adds a separate entry of the source.

Experiments:
[1] = system: APP/PS1 mice; assay: Morris water maze (MWM) spatial learning in AD mice; assay type: in vivo, mouse
Method: (§1) Mice were treated with EHop-016 (10 mg/kg), CS7170 (50 mg/kg), CS7171 (50 mg/kg), and JKF-034 (40 mg/kg). These drugs were dissolved in saline (0.9% NaCl) containing 0.5% Tween-80 (Sigma P4780). Each mouse received 200 μL of the solution by intragastric administration once per day (administered at 9:00 am). The drug administration was started seven days before the beginning of the Morris water maze (MWM) task and was continued until the end of the assay. All control groups were fed with vehicle solution.
The MWM test, a classic paradigm used to study spatial reference memory, was performed (Vorhees and Williams, [2006]). Briefly, a circular polypropylene water tank (120 cm in diameter) was filled with opaque water and milk (20 °C ± 1 °C) and a transparent platform (15 cm diameter) was submerged (2 cm below the water surface) in the center of one of the four virtually divided quadrants. Distal cues were fixed on the wall of the tank as spatial references. For the classic training paradigm (Figs. 2 and 6), mice were allowed to find the platform within 60 s and to remain on it for at least 5 s. For the modified training paradigm (Fig. 3A), mice were trained over 5 consecutive sessions with a 1-h intervals within one day. After training, mice were returned to their home cages and the memory of the location of the platform was tested at 6 h after training (Fig. 3C–D). A mouse behavior tracking software (ANY-maze software) was used to record data automatically.

[2] = target: Rac1 (Mus musculus, UniProt P63001); assay: Rac1 activity (Rac1-GTP/total Rac1) in hippocampal tissue by PAK-PBD pull-down and Western blot after drug administration; assay type: in vivo, APP/PS1 mice
Method: We first assayed Rac1 activity in hippocampal tissues from AD patients and healthy age-matched, non-demented controls (Detailed information is provided in Table 1). The levels of the guanosine triphosphate (GTP)-bound active form of Rac1 were measured using the p21-binding domain (PBD) pull-down assay. The GTP-bound active form of Rac1 was pulled down through the interactive p21-activated kinase (PAK) fragment using PAK-PBD beads and measured using a Western blot assay (Fig. 1A), as described in previous studies (Shuai et al., [2010]; Liu et al., [2016]) from our laboratory and studies conducted by other research groups (Sander et al., [1998]; Barnes et al., [2008]). The total amount of Rac1 and actin were also evaluated using the Western blot analyses (See MATERIALS AND METHODS). […] Since there were no significant differences in total Rac1 levels between the experimental and control groups (See representative Western blot in all relevant figures), the ratio of Rac1-GTP to total Rac1 was taken as a measure of Rac1 activity. […] Consistent with this observation, Rac1 activity was also elevated in the hippocampus of APP/PS1 mice at different age (Fig. 1D). […] This increase was more pronounced in older flies (Fig. S1F).
as §1
The hippocampal tissues from human subjects and mice were harvested and stored in a liquid nitrogen tank for biochemical assay. The tissues were homogenized in cold lysis buffer (Merck-Millipore, 20-168). The insoluble debris were removed after centrifugation at 13,000 rpm (for 10 min, at 4 °C). For GTP-bound Rac/Cdc42, lysates were incubated with GST-tagged PAK (p21-activated kinase)-PBD agarose beads (Cytoskeleton, PAK02) overnight at 4 °C. On the second day, the beads were washed three times with lysis buffer before subjecting them to SDS-PAGE (15%) and transferring them onto nitrocellulose membranes (Millipore, HATF00010). The membranes were incubated with primary antibodies (for Rac1: BD Transduction Laboratories, #610650, 1:2,000 dilution; for Cdc42, Santa Cruz Biotechnology, lot No. sc-8401, 1:500 dilution) overnight at 4 °C and with HRP-conjugated goat anti-mouse IgG (Cell Signaling Technology, #7076) for 1 h at room temperature. Intensities of the detected bands were analyzed using ImageJ software (National Institutes of Health). The total amount of Rac1 in the lysate was detected using a routine Western blot procedure. RhoA-GTP levels were measured by using the Rho-GTP monoclonal antibody (New East, lot No. 26904, Dilution: 1:1,000). Information regarding the other antibodies used is as follows: anti-RhoA (67B9), Cell Signaling, lot No. #2117, dilution: 1:1,000; anti-Actin, Clone C4, Millipore, lot No. #3018859, dilution: 1:2,000; anti-Amyloid 1-42 6E10, BioLegend, lot No. 803001, dilution: 1:1,000; anti-Phospho-PAK1 (Ser144)/PAK2 (Ser141), Cell Signaling, lot No. #2606, dilution: 1:1,000.

[3] = target: Rac1 (Drosophila melanogaster, UniProt P40792); assay: Rac1 activity in fly whole brain lysate by Western blot; assay type: in vivo; conditions: AD flies; EHop-016 100 μmol/L
Method: (§2) Flies were treated with EHop-016 (Yong-Can Biotech). The EHop-016 was dissolved in dimethyl sulfoxide (DMSO; Sigma, D8418-100ML) to make a 10-mmol/L stock solution. This solution was stored at −20 °C for later use. Before administration, 4% (m/v) sucrose solution was used to dilute the stock solution to a concentration of 100 µmol/L (working solution). After the flies were starved for 3 h in empty vials, they were fed with the working solution for 5 h. Feeding was carried out once per day until testing.
The hippocampal tissues from human subjects and mice were harvested and stored in a liquid nitrogen tank for biochemical assay. The tissues were homogenized in cold lysis buffer (Merck-Millipore, 20-168). The insoluble debris were removed after centrifugation at 13,000 rpm (for 10 min, at 4 °C). For GTP-bound Rac/Cdc42, lysates were incubated with GST-tagged PAK (p21-activated kinase)-PBD agarose beads (Cytoskeleton, PAK02) overnight at 4 °C. […] Intensities of the detected bands were analyzed using ImageJ software (National Institutes of Health). The total amount of Rac1 in the lysate was detected using a routine Western blot procedure. RhoA-GTP levels were measured by using the Rho-GTP monoclonal antibody (New East, lot No. 26904, Dilution: 1:1,000). […]

[4] = system: Aβ42 transgenic flies (elav/Y; UAS-Aβ42/+); assay: Pavlovian olfactory aversive conditioning in AD flies; assay type: in vivo, Drosophila; conditions: AD flies fed 100 μmol/L EHop-016 for 7 days
Method: as §2
To assess learning and memory, flies underwent classic olfactory aversive conditioning. One- to two-day-old flies were collected and fed with EHop-016 (100 µmol/L) for 7 days. Training and testing were performed at 24 °C with 60% relative humidity. During training, about 100 flies were exposed to an electric shock (unconditioned stimulus [US]) paired with either 3-octanol (>95% purity; Fluka, Sigma-Aldrich) or 4-methylcyclohexanol (>99% purity; Fluka, Sigma-Aldrich) as the conditioned stimulus (CS). Performance was tested using a T-maze apparatus within which 3-octanol and 4-methylcyclohexanol were delivered from opposite arms simultaneously. […] The learning score was calculated as the difference between the number of flies in each arm divided by the sum of flies in both arms immediately after training. Performance index was calculated as the average of two reciprocal tests to avoid odor bias. […]

[5] = system: LTP in hippocampal slices of APP/PS1 mice; assay: Long-term potentiation (fEPSP recording) in hippocampal slices; assay type: cell-based, mouse; conditions: brain slices of 6-month-old APP/PS1 mice; EHop-016 10 μmol/L in ACSF
Method: Acute 300-μm transverse hippocampal slices were prepared using a vibratome (VTS3000, USA). The slices were maintained at room temperature in a submersion chamber in artificial cerebrospinal fluid (ACSF) containing 125 mmol/L NaCl (Sigma, 71376), 2.5 mmol/L KCl (Sigma, P9541), 2 mmol/L CaCl2 (Sigma, 499609), 1 mmol/L MgCl2 (Sigma, M1028), 1.25 mmol/L NaH2PO4 (Sigma, S3139), 24 mmol/L NaHCO3 (Sigma, S5761) (pH = 7.4), and 15 mmol/L glucose (Sigma, G8270), bubbled with 95% O2 and 5% CO2. Slices were incubated for at least 1 h before removal for experiments. Slices were kept in the MED probe for 1 h for attachment to the 16-channel array (MED-PG515A, Alpha MED Sciences; preheated to 33 °C). Extracellular field excitatory post-synaptic potentials (fEPSPs) in the Schaffer collateral pathway were evoked at 0.025 Hz and recorded in the CA1. The fEPSPs were evoked using a stimulation intensity that elicited a 30% maximal response. Data acquisition and analysis were performed using the multi-electrode MED64 hardware and software package (Panasonic). Additional analyses were performed using custom macros running under Igor Pro. The LTP was induced by one train of theta burst stimulation (TBS) consisting of one epoch of 10 trains of five bursts repeated at 5 Hz and delivered at the same intensity as in the baseline recordings. […]

[6] = In vitro metabolic stability in monkey liver microsomes; assay type: in vitro ADME
Method: (§3) Measurements of metabolic stability can be performed with liver microsomes, which are known to contain the major drug-metabolizing enzymes and UDP-glucuronosyltransferase (Baranczewski et al., [2006]). The in vitro metabolic stability levels of CS7171 and JKF-034 were measured using human, monkey, and mouse liver microsomes. The metabolic half-time (T1/2) and intrinsic clearance (Clint) were assayed using LC-MS analysis. Ketanserin is a potent, orally effective antagonist of endogenous serotonin. Its pharmacological profile is well studied (Brogden and Sorkin, [1990]). In this study, we used ketanserin as a control. If the T1/2 of the tested compound was 30–120 min, the compound was considered to show moderate metabolism in liver microsomes. If the T1/2 value was less than 30 min, the compound was considered to be susceptible to metabolism in liver microsomes.

[7] = In vitro metabolic stability in mouse liver microsomes; assay type: in vitro ADME
Method: as §3

[8] = In vitro metabolic stability in human liver microsomes; assay type: in vitro ADME
Method: as §3

[9] = In vitro blood-brain barrier permeability assay; assay type: in vitro ADME; conditions: dog, 37 °C, MDR-MDCK
Method: The MDR-MDCK cell line can be used as a fast blood-brain barrier (BBB) model to aid drug discovery (Wang et al., [2005]). In this study, the MDR-MDCK cell line was used to evaluate the permeability coefficients of CS7171 and JKF-034. Briefly, CS7171 and JKF-034 were prepared to final concentrations of 5 μmol/L. The cells were dosed on the basolateral side (B-A) and apical side (A-B) and incubated at 37 °C for 90 min. Each test was performed in duplicate. The apparent permeability coefficient, Papp, was calculated using the following formula: Papp=VA/Area×Time×(drugacceptor,90-min/drugdonor,0-min×Dilution Factor
VA is the volume in the acceptor well, Area is the surface area of the membrane, Time is the total transport time in seconds, [drug]donor, 0-min is the donor drug concentration measured at 0 min; [drug]acceptor, 90-min is the acceptor drug concentration measured at 90 min; dilution factor is the degree of dilution of the donor sample before loading to LC-MS/MS.

[10] = system: Rac1 in HEK-293 cells; assay: Rac1 activation in cultured cells detected by G-LISA; assay type: cell-based; conditions: 10 μg/mL Aβ42 oligomers in culture medium for 2 h
Method: Synthetic wide-type Aβ42 (purchased from AnaSpec) was initially dissolved in hexafluoroisopropanol (Sigma) to 5 mg/mL for subpackaging. Hexafluoroisopropanol was removed by air drying to obtain an Aβ42 peptide film, which was stored at −80 °C. Then, 24 h before the experiment, the peptide film was first re-suspended in DMSO to a concentration of 12.5 mg/mL and then diluted with Dulbecco’s Modified Eagle Medium (DMEM)/F-12 (phenol red-free; Invitrogen) to a final concentration of 500 μg/mL. The HEK-293 cells were cultured in DMEM containing 10% fetal bovine serum (FBS) at 37 °C with 5% CO2. For oligomer treatment, cells were washed with fresh medium and incubated with 10 μg/mL Aβ42 oligomers for 2 h. Cells were washed twice with PBS before they are collected for Rac1 activity detection by G-LISA (BK128, Cytoskeleton) in accordance with the manufacturer’s protocol.

[11] = APP/PS1 mice (eight-month-old), oral CS7171 50 mg/kg, CS7170 50 mg/kg, JKF-034 40 mg/kg once per day

COc1cc(C=C2C(=O)NN(c3ccc(Cl)c(Cl)c3)C2=O)ccc1O [CS7170]
MWM learning deficit / spatial memory [1, 11]: not | hippocampal Rac1 activity (Rac1-GTP/total Rac1) [2, 11]: not and unable to inhibit Rac1 activity

CCn1c2ccccc2c2cc(Nc3ccnc(NCCCN4CCOCC4)n3)ccc21 [EHop-016]
Rac1 activity in whole brain lysis [3]: reduced Rac1 activity; also recorded: inhibition of Rac1 activity | total Rac1 expression [3]: without changing the total Rac1 expression | learning defect in aversive olfactory conditioning [4]: significantly rescued the learning defects; also recorded: rescued the learning defect | LTP maintenance (fast decay after TBS) [5]: The fast decay was rescued; also recorded: attenuated | MWM escape latency / learning deficit ([1]; 9-month-old APP/PS1 mice, EHop-016 10 mg/kg, versus vehicle-treated AD mice, 10 mg/kg): took less time to locate the hidden platform; also recorded: did not significantly differ from that of WT mice; also recorded: mitigated the learning deficit | total Rac1 expression in hippocampal tissues ([2]; 9-month-old AD mice, EHop-016 10 mg/kg): without changing total Rac1 expression | Rac1 activity (Rac1-GTP/Total Rac1) in hippocampal tissues ([2]; 9-month-old AD mice, EHop-016 10 mg/kg, intragastric once per day, 10 days, 10 mg/kg): significantly inhibited Rac1 activity; also recorded: inhibition of Rac1 activity

O=C(c1ccc(F)cc1)C1CCN(CCn2c(=O)[nH]c3ccccc3c2=O)CC1 [Ketanserin, reference compound]
CLint scaled [6]: 111 mL/min/kg | half-life [6]: 18.3 min | CLint scaled [7]: 312 mL/min/kg | half-life [7]: 17.5 min | CLint scaled [8]: 39.5 mL/min/kg | half-life [8]: 44.1 min

COCCc1ccc(OCC(O)CNC(C)C)cc1 (stereo not drawn) [Metoprolol, reference compound]
Papp A→B at 90 min, 5 μmol/L ([9]; MDCK-MDR1, A-B): 40.5 ×10⁻⁶ cm/s | Papp B→A at 90 min, 5 μmol/L ([9]; MDCK-MDR1, B-A): 28.6 ×10⁻⁶ cm/s

Amyloid-beta 42 [Aβ42]
Rac1 activity in HEK-293 cells [10]: capable of stimulating Rac1 activity
